This is an account of results in patent publication US20070191492A1, “Method for suppressing lung tumorigenesis” (Sumitomo Chemical Company, Limited, priority 2003, published 2007).

The test system of this test is lung tumorigenesis. As to the kind of experiment: multi-organ carcinogenesis model in rats: suppression of lung tumorigenesis (histopathological examination of lung). The following applies: for Frequency of Animals having Tumors, Adenoma (animals with tumor / animals in group) / Frequency of Animals having Tumors, Adenoma (percent) / Frequency of Animals having Tumors, Carcinoma (animals with tumor / animals in group) / Frequency of Animals having Tumors, Carcinoma (percent) / Frequency of Animals having Tumors, Sum of Tumors (animals with tumor / animals in group) / Frequency of Animals having Tumors, Sum of Tumors (percent) / Tumor Multiplicity, Carcinoma (average number of tumors per individual ± standard deviation) / Tumor Multiplicity, Adenoma (average number of tumors per individual ± standard deviation) / Tumor Multiplicity, Sum of Tumors (average number of tumors per individual ± standard deviation): lung, 23 weeks. Type of test: in vivo, male F344 rat. How it is done: With respect to the compound 1 (13α, 14α-epoxy-3β-methoxyserratan-21β-ol) obtained in Example 1, activities for suppressing or inhibiting lung tumorigenesis were measured using a multi-organ carcinogenesis model in rats.
Diethylnitrosamine dissolved in saline was once administered interperitoneally to each male F344 rat at 6 weeks of age (Charles River Japan, Inc.) at a dose of 100 mg/kg body weight wherein this day was made to be day 1 of the testing. In succession, N-methyl-N-nitrosourea dissolved in saline was administered interperitoneally at a dose of 20 mg/kg body weight at day 4, 8, 11 and 15 of the testing (total four times of dosing). Furthermore, dimethylhydrazine dissolved in saline was administered subcutaneously at a dose of 40 mg/kg body weight at day 18, 22, 25, 29, 32 and 36 of the testing (total six times of dosing). In parallel with administration of these carcinogens, drinking water into which 0.05% N-butyl-N-(4-hydroxybutyl)nitrosamine was dissolved was allowed to ingest to the F344 rat from day 1 of the testing for the following four weeks. Thereafter, drinking water into which around 0.1% of 2, 2′-dihydroxy-di-n-propylnitrosamine was dissolved was allowed to ingest to the F344 rat for over two weeks from the beginning of week 5 to the end of week 6 of the testing. With respect to the F344 rat treated with a variety of carcinogens as described above, administration of the compound 1 was started from the beginning of week 8 of the testing. The compound 1 was dissolved into corn oil and forcibly administered orally into stomach using a sonde at a dose of 5 or 10 mg/kg body weight. The administration was implemented at a frequency of once a day, five days in a week, and continued for twenty three weeks. As a reference, untreated groups to which no compound 1 was administered were provided. After elapsed thirty weeks from starting the testing, each F344 rat had been sacrified to isolate a lung, and histopathological examination was conducted on the lung thus isolated. With respect to neoplastic lesions, they were classified into a benign or malignant lesion, and a number of animals each having a benign tumor or a malignant tumor and a number of tumors were counted in each group.

[1] abbreviates: 5 mg/kg orally once a day, five days a week, examined after 30 weeks.
The mark [2] stands for this setting: treated group vs untreated group, in words.

Regarding “13α, 14α-epoxy-3β-methoxyserratan-21β-ol [Compound 1]”, under setting [1], the “Frequency of Animals having Tumors, Adenoma (animals with tumor / animals in group)” value is 11/20 and the “Frequency of Animals having Tumors, Adenoma (percent)” value came out at 55%. Also, where the note is “5 mg/kg orally, P < 0.05”, the “Frequency of Animals having Tumors, Carcinoma (animals with tumor / animals in group)” value is 1/20; the “Frequency of Animals having Tumors, Carcinoma (percent)” value is 5%; the “Frequency of Animals having Tumors, Sum of Tumors (animals with tumor / animals in group)” value is recorded as 11/20; the Frequency of Animals having Tumors, Sum of Tumors (percent) is 55%. Moreover, the “Tumor Multiplicity, Carcinoma (average number of tumors per individual ± standard deviation)” value (5 mg/kg orally, P < 0.05) was determined as 0.05 ± 0.22. For the setting “5 mg/kg orally, p < 0.01”, the “Tumor Multiplicity, Adenoma (average number of tumors per individual ± standard deviation)” value came out at 0.70 ± 0.80 and the “Tumor Multiplicity, Sum of Tumors (average number of tumors per individual ± standard deviation)” value is on record as 0.75 ± 0.85. Where the note is “10 mg/kg orally”, the “Frequency of Animals having Tumors, Adenoma (animals with tumor / animals in group)” value is listed as 12/19; the “Frequency of Animals having Tumors, Adenoma (percent)” value worked out at 67%; the “Frequency of Animals having Tumors, Carcinoma (animals with tumor / animals in group)” value is 5/19; the “Frequency of Animals having Tumors, Carcinoma (percent)” value came out at 28%. Further, under “10 mg/kg orally”, the “Frequency of Animals having Tumors, Sum of Tumors (animals with tumor / animals in group)” value is 13/19; the “Frequency of Animals having Tumors, Sum of Tumors (percent)” value was 72%; the “Tumor Multiplicity, Carcinoma (average number of tumors per individual ± standard deviation)” value worked out at 0.29 ± 0.47. Moreover, for the setting “10 mg/kg orally, P < 0.05”, the “Tumor Multiplicity, Adenoma (average number of tumors per individual ± standard deviation)” value was found to be 1.00 ± 1.00 and the “Tumor Multiplicity, Sum of Tumors (average number of tumors per individual ± standard deviation)” value stood at 1.22 ± 1.06. For the same substance, under setting [2], the “frequency of animals each having tumor (adenoma or carcinoma) compared with the untreated group” value is given as “lower value” and the “tumor multiplicity (adenoma or carcinoma) compared with the untreated group” value was “lower value”.
